What was measured:
[1] = system: Ragweed, Common, Ambrosia artemisifolia; assay: Postemergence herbicidal evaluation, AMBEL; assay type: in vivo, L.
Procedure, shortened: (§1)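 Scoring four to five weeks after treatment used a 0–9 scale based on plant appearance versus control. Treatment: 40 psi spray of about 0.0157–0.500 kg/ha onto two-week seedlings, compound dispersed in acetone/water 50/50 with 0.5% TWEEN 20.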

[2] = system: Sicklepod, Cassia obtusifolia; assay: Postemergence herbicidal evaluation, CASOB; assay type: in vivo, L.
Procedure, shortened: as §1

[3] = system: Morningglory Spp., Ipomoea Spp.; assay: Postemergence herbicidal evaluation, IPOSS; assay type: in vivo; conditions: 0.2500 kg/ha
Description: In the tests, seedling plants are grown in jiffy flats for about two weeks. The test compounds are dispersed in 50/50 acetone/water mixtures containing 0.5% TWEEN®20, a polyoxyethylene sorbitan monolaurate surfactant of Atlas Chemical Industries, in sufficient quantities to provide the equivalent of about 0.0157 kg to 0.500 kg per hectare of active compound when applied to the plants through a spray nozzle operating at 40 psi for a predetermined time. After spraying, the plants are placed on greenhouse benches and are cared for in accordance with conventional greenhouse procedures. From four to five weeks after treatment, the seedling plants are examined and rated according to the rating system set forth below. Where more than one test is involved for a given compound, the data are averaged.
(§2) Results of herbicide evaluation are expressed on a rating scale (0-9). The scale is based upon a visual observation of plant stand, vigor, malformation, size, chlorosis and overall plant appearance as compared with a control.

[4] = system: Wheat, Winter, cv Riband, Triticum aestivum; assay: Postemergence herbicidal evaluation, TRZAWR; assay type: in vivo
Procedure, shortened: as §1

Corn, Field, Zea mays [5] = assay: Postemergence herbicidal evaluation, ZEAMX; assay type: in vivo, L.
Procedure, shortened: as §1

[6] = system: Sicklepod, Cassia obtusifolia; assay: Preemergence herbicidal evaluation, CASOB; assay type: in vivo, L.; conditions: 0.2500 kg/ha
Source text: as §2
(§3) The preemergence herbicidal activity of the test compounds of the present invention is exemplified by the following tests in which the seeds of a variety of monocotyledonous and dicotyledonous plants are separately mixed with potting soil and planted on top of approximately one inch of soil in separate pint cups. After planting, the cups are sprayed with the selected aqueous acetone solution containing test compound in sufficient quantity to provide the equivalent of about 0.0156 to 0.500 kg per hectare of test compound per cup. The treated cups are then placed on greenhouse benches, watered and cared for in accordance with conventional greenhouse procedures. From four to five weeks after treatment, the tests are terminated and each cup is examined and rated according to the rating system provided in Example 185.
(§4) The compounds evaluated are reported by compound number given in Example 185.

[7] = system: Rice, Tebonnet, Oryza sativa; assay: Preemergence herbicidal evaluation, ORYSAT; assay type: in vivo, (L.) Tebonnet; conditions: 0.2500 kg/ha
Source text: as §2, §3, §4

[8] = system: Wheat, Winter, cv Riband, Triticum aestivum; assay: Preemergence herbicidal evaluation, TRZAWR; assay type: in vivo; conditions: 0.2500 kg/ha
Source text: as §2, §3, §4

Corn, Field, Zea mays [9] = assay: Preemergence herbicidal evaluation, ZEAMX; assay type: in vivo, L.; conditions: 0.2500 kg/ha
Source text: as §2, §3, §4

[10] = system: ECHORC Watergrass (Calif.); assay: Preemergence weed control, flooded paddy (Table III); assay type: in vivo, Echinochloa oryzoides; parameters: scale not given here
Description: (§5) Preemergence herbicidal activity under flooded paddy conditions is determined as follows: plant seeds or propagating organs are planted in the top 0.5 cm of silt loam soil in 32 oz. plastic containers with a diameter of 10.5 cm and no drainage holes. Water is added to these containers and maintained at 1.5 to 3 cm above the soil surface for the duration of the experiment. The test compounds are applied as aqueous/acetone mixtures 50/50 v/v pipetted directly into the flood water to give the equivalent of about 0.0313 to 0.500 kg/ha of active ingredient. The treated containers are placed on greenhouse benches and cared for in accordance with conventional greenhouse procedures. Three to four weeks after treatment, the test is terminated and each container is examined and herbicidal effect rated according to the rating system provided in Example 185. The compounds evaluated are reported by compound number given in Example 185.

CYPIR Rice Flatsedge = assay: as above; assay type: in vivo, Cyperus iria; parameters: scale not given here
Description: as §5

[11] = system: SAGPY Arrowhead (Pygmaea); assay: as above; assay type: in vivo, Sagittaria pygmaea; parameters: scale not given here
Description: as §5

ORYSAT Rice, Tebonnet [12] = assay: Tolerance of transplanted rice to post-transplant application (Table III); assay type: in vivo, Oryza sativa; parameters: scale not given here; conditions: crop tolerance
Description: The tolerance of transplanted rice to post-transplanted herbicide applications is determined as follows: two ten-day-old rice seedlings (cv. Tebonnet) are transplanted into silt loam soil in 32 oz. plastic containers with a diameter of 10.5 cm and no drainage holes. After transplanting, the containers are flooded and the water level is maintained at 1.5 to 3 cm above the soil surface. Three days after transplanting, the flooded soil surface of the containers is treated with the selected aqueous/acetone 50/50 v/v mixture containing the test compounds to provide the equivalent of about 0.0313 to 0.500 kg/ha of active ingredient. The treated containers are placed on greenhouse benches, watered such that the water level is maintained as stated above, and cared for in accordance with conventional greenhouse procedures. Three to four weeks after treatment, the test is terminated and each container is examined and herbicidal effect rated according to the rating system provided in Example 185. The compounds evaluated are reported by compound number given in Example 185.

[13] = system: ECHORC Watergrass (Calif.); assay: Postemergence weed control, flooded paddy (Table IV); assay type: in vivo, Echinochloa oryzoides; parameters: scale not given here
Source text: (§6) Plastic containers containing weeds which are 3 to 5 cm tall and rice seedlings at the 1.5 to 2.5 leaf stage are flooded with water. The water is maintained at 1.5 to 3 cm above the soil surface for the duration of the experiment. Test compounds are applied as aqueous/acetone mixtures 50/50 v/v directly into the flood water to provide the equivalent of about 0.0313 to 0.500 kg/ha of active ingredient. The treated containers are placed on greenhouse benches and cared for in accordance with conventional greenhouse procedures. Three to four weeks after treatment, the test is terminated and each container is examined and herbicidal effect rated according to the rating system provided in Example 185. The compounds evaluated are reported by compound number given in Example 185.

ORYSAT Rice, Tebonnet [14] = assay: Rice tolerance, flooded paddy (Table IV); assay type: in vivo, Oryza sativa; parameters: scale not given here; conditions: crop tolerance
Source text: as §6

| SMILES | herbicide rating (0-9) ([1]; 0.2500 kg/ha) | herbicide rating (0-9) ([2]; 0.2500 kg/ha) | herbicide rating (0-9) [3] | herbicide rating (0-9) ([4]; 0.2500 kg/ha) | herbicide rating (0-9) (Corn, Field, Zea mays [5]; 0.2500 kg/ha) | herbicide rating (0-9) [6] | herbicide rating (0-9) [7] | herbicide rating (0-9) [8] | herbicide rating (0-9) (Corn, Field, Zea mays [9]) | herbicidal effect rating ([10]; 0.0625 kg/ha) | herbicidal effect rating ([10]; 0.1250 kg/ha) | herbicidal effect rating ([10]; 0.2500 kg/ha) | herbicidal effect rating ([10]; 0.5000 kg/ha) | herbicidal effect rating (CYPIR Rice Flatsedge; 0.0625 kg/ha) | herbicidal effect rating (CYPIR Rice Flatsedge; 0.1250 kg/ha) | herbicidal effect rating (CYPIR Rice Flatsedge; 0.2500 kg/ha) | herbicidal effect rating (CYPIR Rice Flatsedge; 0.5000 kg/ha) | herbicidal effect rating ([11]; 0.0625 kg/ha) | herbicidal effect rating ([11]; 0.1250 kg/ha) | herbicidal effect rating ([11]; 0.2500 kg/ha) | also measured |
| --- | --- | --- | --- | --- | --- | --- | --- | --- | --- | --- | --- | --- | --- | --- | --- | --- | --- | --- | --- | --- | --- |
| Cc1nsc2ccc(-n3c(=O)cc(C(F)(F)F)n(C)c3=O)cc12 [Compound 6, 1-Methyl-3-(3-methyl-1,2-benzisothiazol-5-yl)-6-(trifluoromethyl)-2,4(1H,3H)-pyrimidinedione] | 9.0 | 8.0 | 9.0 | 5.0 | 3.5 | 9.0 | 8.0 | 8.0 | 9.0 | 6.0 | 8.0 | 9.0 | 9.0 | 9.0 | 9.0 | 9.0 | 9.0 | 4.0 | 7.0 | 7.0 | herbicide rating (0-9) ([1]; 0.0630 kg/ha): 6.5; herbicide rating (0-9) ([2]; 0.0630 kg/ha): 2.5; herbicide rating (0-9) ([4]; 0.0630 kg/ha): 1.5; herbicide rating (0-9) (Corn, Field, Zea mays [5]; 0.0630 kg/ha): 4.5; herbicidal effect rating ([11]; 0.5000 kg/ha): 9.0; herbicidal effect rating (ORYSAT Rice, Tebonnet [12]; 0.0625 kg/ha): 8.0; herbicidal effect rating (ORYSAT Rice, Tebonnet [12]; 0.1250 kg/ha): 8.0; herbicidal effect rating (ORYSAT Rice, Tebonnet [12]; 0.2500 kg/ha): 8.0; herbicidal effect rating (ORYSAT Rice, Tebonnet [12]; 0.5000 kg/ha): 8.0; herbicidal effect rating ([13]; 0.1250 kg/ha): 9.0; herbicidal effect rating ([13]; 0.2500 kg/ha): 9.0; herbicidal effect rating ([13]; 0.5000 kg/ha): 9.0; herbicidal effect rating (ORYSAT Rice, Tebonnet [14]; 0.1250 kg/ha): 9.0; herbicidal effect rating (ORYSAT Rice, Tebonnet [14]; 0.2500 kg/ha): 9.0; herbicidal effect rating (ORYSAT Rice, Tebonnet [14]; 0.5000 kg/ha): 9.0 |
| COC(=O)C(C)Oc1cc(C)ccc1-c1nsc2ccc(-n3c(=O)cc(C(F)(F)F)n(C)c3=O)cc12 (stereo not drawn) [Compound 9, Methyl 2-{{6-{5-[3,6-dihydro-3-methyl-4-(trifluoromethyl)-2,6-dioxo-1(2H)-pyrimidinyl]-1,2-benzisothiazol-3-yl}-m-tolyl}oxy}propionate] | 9.0 | 9.0 | 9.0 | 9.0 | 9.0 | 9.0 | 9.0 | 9.0 | 9.0 | 9.0 | 9.0 | 9.0 | 9.0 | 9.0 | 9.0 | 9.0 | 9.0 | 2.0 | 8.0 | 8.0 | herbicidal effect rating ([10]; 0.0313 kg/ha): 9.0; herbicidal effect rating (CYPIR Rice Flatsedge; 0.0313 kg/ha): 9.0; herbicidal effect rating ([11]; 0.0313 kg/ha): 0.0; herbicidal effect rating ([11]; 0.5000 kg/ha): 9.0; herbicidal effect rating (ORYSAT Rice, Tebonnet [12]; 0.0313 kg/ha): 6.0; herbicidal effect rating (ORYSAT Rice, Tebonnet [12]; 0.0625 kg/ha): 7.0; herbicidal effect rating (ORYSAT Rice, Tebonnet [12]; 0.1250 kg/ha): 7.0; herbicidal effect rating (ORYSAT Rice, Tebonnet [12]; 0.2500 kg/ha): 8.0; herbicidal effect rating (ORYSAT Rice, Tebonnet [12]; 0.5000 kg/ha): 9.0; herbicidal effect rating ([13]; 0.1250 kg/ha): 9.0; herbicidal effect rating ([13]; 0.2500 kg/ha): 9.0; herbicidal effect rating ([13]; 0.5000 kg/ha): 9.0; herbicidal effect rating (ORYSAT Rice, Tebonnet [14]; 0.1250 kg/ha): 7.0; herbicidal effect rating (ORYSAT Rice, Tebonnet [14]; 0.2500 kg/ha): 9.0; herbicidal effect rating (ORYSAT Rice, Tebonnet [14]; 0.5000 kg/ha): 9.0 |
| COC(=O)C(C)Oc1cc(C)c(C)cc1-c1nsc2ccc(-n3c(=O)cc(C(F)(F)F)n(C)c3=O)cc12 (stereo not drawn) [Compound 13, Methyl 2-{{6-{5-[3,6-dihydro-3-methyl-4-(trifluoromethyl)-2,6-dioxo-1(2H)-pyrimidinyl]-1,2-benzisothiazol-3-yl}-3,4-xylyl}oxy}propionate] | 9.0 | 9.0 | 9.0 | 8.5 | 9.0 | 9.0 | 6.0 | 4.0 | 4.0 | 9.0 | 9.0 | 9.0 | 9.0 | 9.0 | 9.0 | 9.0 | 9.0 | 2.0 | 6.0 | 8.0 | herbicidal effect rating ([10]; 0.0313 kg/ha): 9.0; herbicidal effect rating (CYPIR Rice Flatsedge; 0.0313 kg/ha): 9.0; herbicidal effect rating ([11]; 0.0313 kg/ha): 0.0; herbicidal effect rating ([11]; 0.5000 kg/ha): 9.0; herbicidal effect rating (ORYSAT Rice, Tebonnet [12]; 0.0313 kg/ha): 4.0; herbicidal effect rating (ORYSAT Rice, Tebonnet [12]; 0.0625 kg/ha): 6.0; herbicidal effect rating (ORYSAT Rice, Tebonnet [12]; 0.1250 kg/ha): 7.0; herbicidal effect rating (ORYSAT Rice, Tebonnet [12]; 0.2500 kg/ha): 7.0; herbicidal effect rating (ORYSAT Rice, Tebonnet [12]; 0.5000 kg/ha): 9.0; herbicidal effect rating ([13]; 0.1250 kg/ha): 6.0; herbicidal effect rating ([13]; 0.2500 kg/ha): 8.0; herbicidal effect rating ([13]; 0.5000 kg/ha): 9.0; herbicidal effect rating (ORYSAT Rice, Tebonnet [14]; 0.1250 kg/ha): 4.0; herbicidal effect rating (ORYSAT Rice, Tebonnet [14]; 0.2500 kg/ha): 4.0; herbicidal effect rating (ORYSAT Rice, Tebonnet [14]; 0.5000 kg/ha): 7.0 |
